From ChEMBL document CHEMBL3774317, “Design and synthesis of novel tamoxifen analogues that avoid CYP2D6 metabolism” (Eur J Med Chem, 2016)

What was measured:
MDA-MB-435 = experiment: Cytotoxicity against human MDA-MB-435 cells assessed as cell growth at 10^-7 M after 48 hrs by SRB assay; format: functional; conditions: MDA-MB-435, 48 h, read-out: Activity
[1] = Cytotoxicity against human SNB75 cells assessed as cell growth at 10^-5 M after 48 hrs by SRB assay; format: functional; conditions: SNB-75, 48 h, read-out: Activity
[2] = Cytotoxicity against human OVCAR4 cells assessed as cell growth at 10^-8 M after 48 hrs by SRB assay; format: functional; conditions: OVCAR-4, 48 h, read-out: Activity
[3] = Cytotoxicity against human UACC257 cells assessed as cell growth at 10^-8 M after 48 hrs by SRB assay; format: functional; conditions: UACC-257, 48 h, read-out: Activity
[4] = Cytotoxicity against human SF295 cells assessed as cell growth at 10^-7 M after 48 hrs by SRB assay; format: functional; conditions: SF-295, 48 h, read-out: Activity
[5] = Cytotoxicity against human OVCAR8 cells assessed as cell growth at 10^-5 M after 48 hrs by SRB assay; format: functional; conditions: OVCAR-8, 48 h, read-out: Activity
[6] = Cytotoxicity against human BT549 cells assessed as cell growth at 10^-4 M after 48 hrs by SRB assay; format: functional; conditions: BT-549, 48 h, read-out: Activity
SK-MEL-28 [7] = experiment: Cytotoxicity against human SK-MEL-28 cells assessed as cell growth at 10^-7 M after 48 hrs by SRB assay; format: functional; conditions: SK-MEL-28, 48 h, read-out: Activity
[8] = Cytotoxicity against human Caki1 cells assessed as cell growth at 10^-8 M after 48 hrs by SRB assay; format: functional; conditions: CAKI-1, 48 h, read-out: Activity
[9] = Cytotoxicity against human SF295 cells assessed as cell growth at 10^-6 M after 48 hrs by SRB assay; format: functional; conditions: SF-295, 48 h, read-out: Activity
CCRF-CEM [10] = experiment: Cytotoxicity against human CCRF-CEM cells assessed as cell growth at 10^-6 M after 48 hrs by SRB assay; format: functional; conditions: read-out: Activity
[11] = Cytotoxicity against human LOXIMVI cells assessed as cell growth at 10^-6 M after 48 hrs by SRB assay; format: functional; conditions: LOX IMVI, read-out: Activity
CCRF-CEM [12] = experiment: Cytotoxicity against human CCRF-CEM cells assessed as cell growth at 10^-5 M after 48 hrs by SRB assay; format: functional; conditions: read-out: Activity
SK-MEL-5 = experiment: Cytotoxicity against human SK-MEL-5 cells assessed as cell growth at 10^-4 M after 48 hrs by SRB assay; format: functional; conditions: SK-MEL-5, 48 h, read-out: Activity
[13] = Cytotoxicity against human SW620 cells assessed as cell growth at 10^-5 M after 48 hrs by SRB assay; format: functional; conditions: SW-620, 48 h, read-out: Activity
[14] = Cytotoxicity against human NCI-ADR-RES cells assessed as cell growth at 10^-5 M after 48 hrs by SRB assay; format: functional; conditions: read-out: Activity
[15] = Cytotoxicity against human PC3 cells assessed as cell growth at 10^-8 M after 48 hrs by SRB assay; format: functional; conditions: PC-3, 48 h, read-out: Activity
[16] = Cytotoxicity against human SNB19 cells assessed as cell growth at 10^-5 M after 48 hrs by SRB assay; format: functional; conditions: SNB-19, 48 h, read-out: Activity
NCI-H322M = experiment: Cytotoxicity against human NCI-H322M cells assessed as cell growth at 10^-8 M after 48 hrs by SRB assay; format: functional; conditions: read-out: Activity
A498 = experiment: Cytotoxicity against human A498 cells assessed as cell growth at 10^-5 M after 48 hrs by SRB assay; format: functional; conditions: A498, 48 h, read-out: Activity
[17] = Cytotoxicity against human UO31 cells assessed as cell growth at 10^-7 M after 48 hrs by SRB assay; format: functional; conditions: UO-31, 48 h, read-out: Activity
[18] = Cytotoxicity against human HCC2998 cells assessed as cell growth at 10^-6 M after 48 hrs by SRB assay; format: functional; conditions: HCC 2998, 48 h, read-out: Activity
[19] = Cytotoxicity against human UO31 cells assessed as cell growth at 10^-4 M after 48 hrs by SRB assay; format: functional; conditions: UO-31, 48 h, read-out: Activity
[20] = Cytotoxicity against human RPMI8226 cells assessed as cell growth at 5 uM after 48 hrs by SRB assay; format: functional; conditions: RPMI-8226, 48 h, read-out: Activity
[21] = Cytotoxicity against human Caki1 cells assessed as cell growth at 50 uM after 48 hrs by SRB assay; format: functional; conditions: CAKI-1, 48 h, read-out: Activity
[22] = Cytotoxicity against human BT549 cells assessed as cell growth at 0.5 uM after 48 hrs by SRB assay; format: functional; conditions: BT-549, 48 h, read-out: Activity
ACHN = experiment: Cytotoxicity against human ACHN cells assessed as cell growth at 50 nM after 48 hrs by SRB assay; format: functional; conditions: read-out: Activity
[23] = Cytotoxicity against human HCT116 cells assessed as cell growth at 5 uM after 48 hrs by SRB assay; format: functional; conditions: HCT-116, 48 h, read-out: Activity
[24] = Cytotoxicity against human HL-60(TB) cells assessed as cell growth at 50 uM after 48 hrs by SRB assay; format: functional; conditions: HL-60, 48 h, read-out: Activity
[25] = Cytotoxicity against human NCI-ADR-RES cells assessed as cell growth at 5 uM after 48 hrs by SRB assay; format: functional; conditions: read-out: Activity
CCRF-CEM [26] = experiment: Cytotoxicity against human CCRF-CEM cells assessed as cell growth at 5 uM after 48 hrs by SRB assay; format: functional; conditions: read-out: Activity
[27] = Metabolic stability in human hepatocytes assessed as remaining parent compound level at 10 uM after 3 hrs by LC/MS analysis; format: ADME, cell-based, Hepatocyte; conditions: read-out: Drug metabolism
[28] = Cytotoxicity against human SKOV3 cells assessed as cell growth at 5 uM after 48 hrs by SRB assay; format: functional; conditions: SK-OV-3, 48 h, read-out: Activity
[29] = Cytotoxicity against human OVCAR4 cells assessed as cell growth at 5 nM after 48 hrs by SRB assay; format: functional; conditions: OVCAR-4, 48 h, read-out: Activity
[30] = Cytotoxicity against human COLO205 cells assessed as cell growth at 5 uM after 48 hrs by SRB assay; format: functional; conditions: COLO 205, 48 h, read-out: Activity
Malme-3M = experiment: Cytotoxicity against human MALME-3M cells assessed as cell growth at 50 uM after 48 hrs by SRB assay; format: functional; conditions: read-out: Activity
SK-MEL-28 [31] = experiment: Cytotoxicity against human SK-MEL-28 cells assessed as cell growth at 0.5 uM after 48 hrs by SRB assay; format: functional; conditions: SK-MEL-28, 48 h, read-out: Activity
[32] = Cytotoxicity against human NCI-ADR-RES cells assessed as cell growth at 0.5 uM after 48 hrs by SRB assay; format: functional; conditions: read-out: Activity
SR = experiment: Cytotoxicity against human SR cells assessed as cell growth at 50 uM after 48 hrs by SRB assay; format: functional; conditions: read-out: Activity
T47D = experiment: Cytotoxicity against human T47D cells assessed as cell growth at 50 nM after 48 hrs by SRB assay; format: functional; conditions: read-out: Activity
786-0 = experiment: Cytotoxicity against human 786-0 cells assessed as cell growth at 50 uM after 48 hrs by SRB assay; format: functional; conditions: 786-0, 48 h, read-out: Activity
[33] = Cytotoxicity against human SKOV3 cells assessed as cell growth at 5 nM after 48 hrs by SRB assay; format: functional; conditions: SK-OV-3, 48 h, read-out: Activity

For `C/C(=C(/c1ccc(O)cc1)c1ccc(OCCN2CCCC2)cc1)c1ccccc1`, which growth at 0.1 µM (MDA-MB-435) is on record?
The growth at 0.1 µM was 97%.

And the growth at 10 µM [1]?
Its growth at 10 µM is 23%.

And the growth at 0.01 µM [2]?
Its growth at 0.01 µM is 90%.

What about the growth at 0.01 µM [3] of the same molecule?
Its growth at 0.01 µM is 96%.

What about the growth at 0.1 µM [4] of the same molecule?
Its growth at 0.1 µM is 94%.

And the growth at 10 µM [5]?
The growth at 10 µM was 35%.

What about the growth at 100 µM [6] of the same molecule?
Its growth at 100 µM is -100%.

What about the growth at 0.1 µM (SK-MEL-28 [7]) of the same molecule?
Its growth at 0.1 µM is 97%.

What about the growth at 0.01 µM [8] of the same molecule?
The growth at 0.01 µM was 87%.

And the growth at 1 µM [9]?
The growth at 1 µM was 94%.

And the growth at 1 µM (CCRF-CEM [10])?
The growth at 1 µM was 102%.

What about the growth at 1 µM [11] of the same molecule?
Its growth at 1 µM is 92%.

And the growth at 10 µM (CCRF-CEM [12])?
Its growth at 10 µM is -1%.

What about the growth at 100 µM (SK-MEL-5) of the same molecule?
The growth at 100 µM was -100%.

And the growth at 10 µM [13]?
The growth at 10 µM was -40%.

What about the growth at 10 µM [14] of the same molecule?
The growth at 10 µM was 25%.

What about the growth at 0.01 µM [15] of the same molecule?
The growth at 0.01 µM was 104%.

What about the growth at 10 µM [16] of the same molecule?
The growth at 10 µM was -10%.

And the growth at 0.01 µM (NCI-H322M)?
Its growth at 0.01 µM is 97%.

What about the growth at 10 µM (A498) of the same molecule?
The growth at 10 µM was -5%.

What about the growth at 0.1 µM [17] of the same molecule?
The growth at 0.1 µM was 90%.

What about the growth at 1 µM [18] of the same molecule?
Its growth at 1 µM is 94%.

And the growth at 100 µM [19]?
The growth at 100 µM was -92%.

Which growth at 5 µM [20] does the source give for `CCCCCCCCCC(=O)Oc1ccc(/C(=C(/C)c2ccccc2)c2ccc(OCCN3CCCC3)cc2)cc1` here?
The growth at 5 µM was 86%.

What about the growth at 50 µM [21] of the same molecule?
The growth at 50 µM was -89%.

What about the growth at 0.5 µM [22] of the same molecule?
Its growth at 0.5 µM is 83%.

What about the growth at 0.05 µM (ACHN) of the same molecule?
The growth at 0.05 µM was 96%.

And the growth at 5 µM [23]?
Its growth at 5 µM is 85%.

What about the growth at 50 µM [24] of the same molecule?
The growth at 50 µM was -70%.

What about the growth at 5 µM [25] of the same molecule?
The growth at 5 µM was 82%.

What about the growth at 5 µM (CCRF-CEM [26]) of the same molecule?
The growth at 5 µM was 88%.

And the remaining at 3 h, 10 µM [27]?
The remaining at 3 h, 10 µM was 36%.

What about the growth at 5 µM [28] of the same molecule?
Its growth at 5 µM is 78%.

What about the growth at 0.005 µM [29] of the same molecule?
Its growth at 0.005 µM is 100%.

And the growth at 5 µM [30]?
The growth at 5 µM was 79%.

And the growth at 50 µM (Malme-3M)?
The growth at 50 µM was -82%.

What about the growth at 0.5 µM (SK-MEL-28 [31]) of the same molecule?
Its growth at 0.5 µM is 19%.

And the growth at 0.5 µM [32]?
Its growth at 0.5 µM is 73%.

And the growth at 50 µM (SR)?
Its growth at 50 µM is -66%.

What about the growth at 0.05 µM (T47D) of the same molecule?
The growth at 0.05 µM was 62%.

And the growth at 50 µM (786-0)?
The growth at 50 µM was -84%.

And the growth at 0.005 µM [33]?
The growth at 0.005 µM was 101%.
